Results as given in patent US20250320245A1, “Nucleoside Analogues for the Treatment of Parasitic Infections” (Universiteit Antwerpen, priority 2021, published 2025).
Where two headings read alike, the source gives them in different places.

Columns and labels:
[1] = Cytotoxicity assay on MRC-5 fibroblasts; format: cell-based; conditions: human; for CC50 at 3 day: MRC-5SV2 embryonic lung fibroblasts, Table 1, mean and SEM of two independent experiments, highest concentration 64 μM, read-out: MRC-5 off-target cytotoxicity (CC50); for IC50 at 3 day: MRC-5SV2 human embryonic lung fibroblasts, Table 2, two independent repeat experiments
Protocol: MRC-5SV2 (Sigma-Aldrich/ECACC, catalogue number 84100401) human embryonic lung fibroblasts were used to perform cytotoxicity assays. The cells were cultured in minimum essential medium (MEM, Life Technologies) with Earle's salt medium, supplemented with L-glutamine, NaHCO3 and 5% inactivated fetal bovine serum (iFBS). Cells were seeded at 1.5×10^4 cells/well and 4-fold compound dilutions were immediately added with a highest in-test concentration of 64 μM. After a 3-day incubation, resazurin (Sigma-Aldrich) was added to each well (final concentration of 10 μg mL^−1), and cell viability was assessed by fluorescent reading (Tecan®, GENios) following 4 h of incubation with resazurin (37° C./5% CO2). The results were expressed as percentage reduction in cell growth/viability compared to control wells and the 50% cytotoxic concentration (CC50) was calculated for each of the compounds.

T. brucei (Squib 427) = test: In vitro drug susceptibility assay, T. brucei; format: cell-based; conditions: Trypanosoma brucei
Protocol: (§1) Drug susceptibility assays with T. brucei (Squib 427), T. evansi type A (RoTat 1.2) and T. equiperdum (BoTat 1.1) were performed under similar conditions. Parasites were cultured in HMI-9 culture medium supplemented with 10% iFBS. To determine in vitro susceptibility of the abovementioned Trypanosoma species, 10 concentrations of a 4-fold dilution series (with a highest in-test concentration of 64 μM) was prepared for each compound, and parasites were seeded at 1.5×10^4 parasite/well. After 72 h of drug exposure at 37° C. with 5% CO2, resazurin was added to the wells (final concentration of 10 μg mL^−1), followed by another incubation for 24 h. Cell viability was determined by fluorescence reading (Tecan®, GENios) and 50% inhibitory concentration (IC50) was calculated for each compound.

T. vivax (ILRAD700) = test: Ex vivo drug susceptibility assay, T. vivax; format: cell-based; conditions: Trypanosoma vivax
From the text: (§2) T. congolense (IL3000), the isometamidium (ISM)-resistant T. congolense strain (MSORO M7H), T. evansi type A (RoTat 1.2), T. evansi type B (KETRI 2479) and T. equiperdum (BoTat 1.1) used for in vitro, ex vivo and in vivo experiments were kindly provided by the Institute of Tropical Medicine (ITM), and T. vivax (ILRAD700) and T. congolense (TC13) used for ex vivo and in vivo experiments, were kindly provided by the University of Brussel (VUB).
(§3) Ex Vivo Drug Susceptibility Assays for T. vivax, T. congolense ISM-Resistant, and T. evansi Type B
(§4) For Trypanosoma species/strains that were not adapted to culture conditions, donor mice were infected intraperitoneally with 10^4 parasites. Around day 5-6 post infection, blood was collected via cardiac puncture and parasites were isolated using mini-anion exchange centrifugation technique (mAECT). 4-fold dilutions of the test compounds were prepared with the highest concentration of 64 μM, and parasites were seeded at 1×10^5 parasite/well. Following 24 h of drug exposure at 37° C. and 5% CO2, resazurin was added to the wells and plates were incubated (37° C./5% CO2) for another 24 h. Cell viability was determined by fluorescence reading (Tecan®, GENios), and IC50 values were calculated by non-linear regression (dose-response curve with variable slope) using Prism 8.0 (GraphPad Software Inc., San Diego, CA, USA).

T. congolense (IL3000) = test: In vitro drug susceptibility assay, T. congolense; format: cell-based; conditions: Trypanosoma congolense; Table 2; two independent repeat experiments
Protocol: Drug susceptibility assays for T. congolense (IL3000) were performed with parasites cultured in HMI-9 medium supplemented with 15% horse serum. Parasites were seeded at a concentration of 1.5×10^4 parasite/well and exposed to a 4-fold compound dilution series starting at a highest in-test concentration of 64 μM. Plates were incubated for 72 h at 34° C. and 5% CO2, followed by the addition of resazurin (Sigma, Aldrich) and a further incubation period of 24 h. Cell viability was quantified by fluorescence reading (Tecan®, GENios), and IC50 values were calculated by non-linear regression (dose-response curve with variable slope) using Prism 8.0 (GraphPad Software Inc., San Diego, CA, USA).

[2] = system: isometamidium (ISM)-resistant T. congolense strain (MSORO M7H); test: Ex vivo drug susceptibility assay, T. congolense ISM-resistant; format: cell-based; conditions: Trypanosoma congolense; Table 2; two independent repeat experiments; read-out: IC50 T. congolense ISM-R
From the text: as §2, §3, §4

[3] = system: T. evansi type A (RoTat 1.2); test: In vitro drug susceptibility assay, T. evansi type A; format: cell-based; conditions: Table 2; two independent repeat experiments; read-out: IC50 T. evansi (type A)
Protocol: as §1

[4] = system: T. evansi type B (KETRI 2479); test: Ex vivo drug susceptibility assay, T. evansi type B; format: cell-based; conditions: Table 2; two independent repeat experiments
From the text: as §2, §3, §4

[5] = system: T. equiperdum (BoTat 1.1); test: In vitro drug susceptibility assay, T. equiperdum; format: cell-based; conditions: Trypanosoma equiperdum; Table 2; two independent repeat experiments
Protocol: as §1

[6] = In vitro metabolic stability, mouse liver S9; format: in vitro ADME; conditions: for metabolic stability in mouse liver microsomes: mouse liver S9, phase-I, without 1-ABT; for effect of 1-aminobenzotriazole (1-ABT) on phase-I metabolic decay: mouse microsome pre-incubated with 1-ABT
Protocol: The metabolic stability of selected compounds was determined in the presence of mice, horse, and bovine liver microsome fractions (S9) through phase-I (CYP450 and NADPH dependent enzymes) and Phase-II (UGT enzymes) metabolisms. Samples were collected after 0, 15, 30, and 60 minutes of incubation and the corresponding loss of parent compound was determined via liquid chromatography (UPLC) (Waters Aquity™) coupled with tandem quadrupole mass spectrometry (MS^2) (Waters Xevo™), equipped with an electrospray ionization (ESI) interface and operated in multiple reaction monitoring (MRM) mode.

[7] = system: T. B. brucei AnTAR1.1 PPYRE9; test: Bioluminescent T. brucei late curative mouse model; format: in vivo, female Swiss mice; conditions: single-dose i.p. 50 mg kg−1
Protocol: Female Swiss mice (BW˜20-24 g; Janvier Labs, France) were randomly allocated to group of 3 animals and were intraperitoneally infected with 2×10^3 T. B. brucei AnTAR1.1 PPYRE9 derived from a heavily infected donor mouse. FH15967 was formulated in 10% (v/v) polyethylene glycol 400 (PEG400) in water at 2 mg mL^−1 and was administrated to separate groups as single dose s.i.d. i.p. at 50 mg kg-1 (n=3), and b.i.d i.p. at 50 mg kg^−1 (n=3). The reference drug diminazene aceturate was formulated in PBS at 2.5 mg mL^−1 and administrated s.i.d i.p. as a single dose at 10 mg kg^−1. Treatment was initiated at 3 dpi when parasitemia reached 10^6 parasites mL^−1, and parasitemia was microscopically determined via Neubaur improved haemocytometer on a daily basis until 7 dpi. Bioluminescent images were obtained at 3, 5 and 7 dpi to determine parasite burdens in the body. Accordingly, D-luciferin was injected i.p. at 15 mg kg^−1, animals were anaesthetised using isoflurane, and luminescent signals were acquired from both the dorsal and ventral sides of the animals. […] BLI images that obtained from IVIS Spectrum In vivo Imaging System (Perkin Elmer) were quantified with Living Image V4.3.1 SoftWoRx Suite 2.0 for microscopy, then processing using the Fiji software.

[8] = Table 1, mean and SEM of two independent experiments, read-out: T. brucei in vitro activity (IC50)
[9] = Table 2, two independent repeat experiments, read-out: IC50 T. brucei
[10] = Table 1, mean and SEM of two independent experiments, read-out: T. vivax in vitro activity (IC50)
[11] = Table 2, two independent repeat experiments, read-out: IC50 T. vivax

For `C=CCSc1ncnc2c1ccn2[C@@H]1O[C@H](CO)[C@@H](O)[C@H]1O` [FH15963, 4-S-allyl-N7-(β-D-ribofuranosyl)pyrrolo[2,3-d]pyrimidine], which CC50 at 3 day [1] is on record?
The CC50 at 3 day was > 64000 nM.

What about the IC50 at 3 day [1] of the same compound?
Its IC50 at 3 day is > 64000 nM.

And the IC50 (T. brucei (Squib 427); [8])?
Its IC50 is 34 ± 1 nM.

And the IC50 (T. brucei (Squib 427); [9])?
The IC50 was 34 ± 1 nM.

And the IC50 (T. vivax (ILRAD700); [10])?
Its IC50 is 34 ± 4 nM.

And the IC50 (T. vivax (ILRAD700); [11])?
The IC50 was 34 ± 4 nM.

And the IC50 (T. congolense (IL3000))?
Its IC50 is 180 ± 8 nM.

What about the IC50 [2] of the same compound?
Its IC50 is 140 ± 50 nM.

And the IC50 [3]?
Its IC50 is 100 ± 5 nM.

And the IC50 [4]?
Its IC50 is 14 ± 4 nM.

What about the IC50 [5] of the same compound?
Its IC50 is 25 ± 4 nM.

And the “metabolic stability in mouse liver microsomes” value (“metabolic stability” below) [6]?
Its value is “phase-I metabolic degradation”.

And the “effect of 1-aminobenzotriazole (1-ABT) on phase-I metabolic decay” value (shortened to “effect of 1-aminobenzotriazole (1-ABT)”) [6]?
The value was “adequately block phase-I metabolic decay”.

With `CSc1ncnc2c1ccn2[C@@H]1O[C@H](CO)[C@@H](O)[C@H]1O` [FH15961/CL5565] as the compound, how does the CC50 at 3 day [1] read?
Its CC50 at 3 day is > 64000 nM.

And the IC50 at 3 day [1]?
Its IC50 at 3 day is > 64000 nM.

What about the IC50 (T. brucei (Squib 427); [8]) of the same compound?
The IC50 was 440 ± 1 nM.

And the IC50 (T. brucei (Squib 427); [9])?
The IC50 was 490 ± 100 nM.

And the IC50 (T. vivax (ILRAD700); [10])?
Its IC50 is 5 ± 10 nM.

What about the IC50 (T. vivax (ILRAD700); [11]) of the same compound?
Its IC50 is 4 ± 2 nM.

And the IC50 (T. congolense (IL3000))?
Its IC50 is 43 ± 8 nM.

And the IC50 [2]?
The IC50 was 430 ± 20 nM.

What about the IC50 [3] of the same compound?
Its IC50 is 760 ± 30 nM.

What about the IC50 [4] of the same compound?
Its IC50 is 16 ± 3 nM.

What about the IC50 [5] of the same compound?
The IC50 was 40 ± 0.2 nM.

And the “metabolic stability” value [6]?
Its value is “phase-I metabolic degradation”.

What about the “effect of 1-aminobenzotriazole (1-ABT)” value [6] of the same compound?
The value was “adequately block phase-I metabolic decay”.

Which CC50 at 3 day [1] does the source give for `OC[C@H]1O[C@@H](n2ccc3c(Sc4ccccc4)ncnc32)[C@H](O)[C@@H]1O` [FH15967, 4-S-phenyl-N7-(β-D-ribofuranosyl)pyrrolo[2,3-d]pyrimidine] here?
The CC50 at 3 day was > 64000 nM.

And the IC50 at 3 day [1]?
Its IC50 at 3 day is > 64000 nM.

And the IC50 (T. brucei (Squib 427); [8])?
The IC50 was 31 ± 8 nM.

And the IC50 (T. brucei (Squib 427); [9])?
The IC50 was 31 ± 8 nM.

What about the IC50 (T. vivax (ILRAD700); [10]) of the same compound?
The IC50 was 44 ± 5 nM.

What about the IC50 (T. vivax (ILRAD700); [11]) of the same compound?
The IC50 was 44 ± 5 nM.

What about the IC50 (T. congolense (IL3000)) of the same compound?
The IC50 was 100 ± 20 nM.

What about the IC50 [2] of the same compound?
Its IC50 is 180 ± 9 nM.

What about the IC50 [3] of the same compound?
Its IC50 is 33 ± 6 nM.

And the IC50 [4]?
Its IC50 is 18 ± 6 nM.

And the IC50 [5]?
Its IC50 is 26 ± 5 nM.

And the “metabolic stability” value [6]?
Its value is “phase-I metabolic degradation”.

And the “effect of 1-aminobenzotriazole (1-ABT)” value [6]?
The value was “adequately block phase-I metabolic decay”.

And the “parasitemia decline by bioluminescent imaging and signal quantification” value ([7]; even faster than the diminazene aceturate reference group)?
Its value is “rapid parasitemia decline”.

And the blood parasitemia ([7]; until day 7 post infection)?
The blood parasitemia was “negative blood parasitemia”.
